How the values were obtained:
Assay in all cases: relative viability (nuclei count vs DMSO), 5 days (fraction); higher = more cells survive
[1] = compound: CC1=C(C(=NN1)C)CC2=C(C3=C(S2)N(C(=O)N(C3=O)C)CC(C)C)C(=O)N4C[C@@H](CO4)O + CC(C)C[C@H](NC(=O)[C@H](Cc1ccccc1)NC(=O)c1cnccn1)B(O)O [Bortezomib] (partner 0.002 µM)
Outline: (§1)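 Dosing by pin tool came one day after lung cancer cell lines were seeded in 1536-well plates, using either one drug or a fixed anchor-drug dose plus five library-drug doses (not always all listed) in √10 steps. After 5 days, nuclei were counted on 4× images. Relative viability is treated-well nuclei count divided by vehicle-well nuclei count, and values are medians of duplicate plates.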

[2] = compound: CC1=C(C(=NN1)C)CC2=C(C3=C(S2)N(C(=O)N(C3=O)C)CC(C)C)C(=O)N4C[C@@H](CO4)O + CS(=O)(=O)N1CCN(Cc2cc3nc(-c4cccc5[nH]ncc45)nc(N4CCOCC4)c3s2)CC1 [Pictilisib] (partner 1 µM)
Outline: as §1

[3] = compound: CC1=C(C(=NN1)C)CC2=C(C3=C(S2)N(C(=O)N(C3=O)C)CC(C)C)C(=O)N4C[C@@H](CO4)O + O=C(c1cc(Cc2n[nH]c(=O)c3ccccc23)ccc1F)N1CCN(C(=O)C2CC2)CC1 [Olaparib] (partner 8 µM)
Outline: as §1

IDH-C35 + Dasatinib = compound: Cc1ccccc1C(C(=O)NC1CCCCC1)N(C(=O)Cn1ccnc1C)c1cccc(F)c1 [IDH-C35] + Cc1nc(Nc2ncc(C(=O)Nc3c(C)cccc3Cl)s2)cc(N2CCN(CCO)CC2)n1 [Dasatinib] (partner 0.075 µM)
Outline: as §1

| Cell Line | relative viability ([1]; first compound 0.0025 µM) | relative viability ([1]; first compound 0.007906 µM) | relative viability ([1]; first compound 0.025 µM) | relative viability ([1]; first compound 0.07906 µM) | relative viability ([1]; first compound 0.25 µM) | relative viability ([2]; first compound 0.0025 µM) | relative viability ([2]; first compound 0.007906 µM) | relative viability ([2]; first compound 0.025 µM) | relative viability ([2]; first compound 0.07906 µM) | relative viability ([2]; first compound 0.25 µM) | relative viability ([3]; first compound 0.0025 µM) | relative viability ([3]; first compound 0.007906 µM) | relative viability ([3]; first compound 0.025 µM) | relative viability ([3]; first compound 0.07906 µM) | relative viability ([3]; first compound 0.25 µM) | relative viability (IDH-C35 + Dasatinib; first compound 0.08 µM) | relative viability (IDH-C35 + Dasatinib; first compound 0.253 µM) | relative viability (IDH-C35 + Dasatinib; first compound 0.8 µM) | relative viability (IDH-C35 + Dasatinib; first compound 2.53 µM) | relative viability (IDH-C35 + Dasatinib; first compound 8 µM) |
| --- | --- | --- | --- | --- | --- | --- | --- | --- | --- | --- | --- | --- | --- | --- | --- | --- | --- | --- | --- | --- |
| NCI-H2009 | 1.03 | 1.08 | 0.975 | 1.09 | 1.13 | 0.875 | 0.884 | 0.842 | 0.998 | 0.909 | 0.704 | 0.682 | 0.649 | 0.711 | 0.721 | 0.309 | 0.33 | 0.341 | 0.311 | 0.303 |
| NCI-H2023 | 1.11 | 1.11 | 0.945 | 0.975 | 0.963 | 0.308 | 0.288 | 0.276 | 0.23 | 0.236 | 0.47 | 0.496 | 0.449 | 0.435 | 0.51 | 0.59 | 0.549 | 0.673 | 0.517 | 0.559 |
| NCI-H2085 | 1.04 | 0.978 | 0.947 | 0.98 | 0.926 | 0.527 | 0.455 | 0.449 | 0.468 | 0.399 | 0.736 | 0.686 | 0.704 | 0.72 | 0.752 | 0.275 | 0.261 | 0.223 | 0.277 | 0.266 |
| NCI-H2087 | 0.996 | 0.716 | 0.705 | 0.909 | 1.05 | 0.958 | 0.908 | 0.838 | 1.04 | 0.921 | 0.67 | 0.661 | 0.598 | 0.727 | 0.701 | 0.944 | 0.995 | 0.9 | – | 0.814 |
| NCI-H2126 | 1.11 | 1.15 | 1.07 | 1.07 | 1.15 | 0.513 | 0.493 | 0.509 | 0.478 | 0.494 | 0.962 | 0.951 | 0.874 | 0.865 | 0.914 | 0.6 | 0.651 | 0.596 | 0.605 | 0.588 |
| NCI-H2228 | 0.996 | 1.09 | 1.11 | 0.97 | 1.47 | 0.546 | 0.356 | 0.439 | 0.352 | 0.443 | 0.609 | 0.745 | 0.786 | 0.786 | 0.993 | 0.571 | 0.526 | 0.509 | 0.53 | 0.537 |
| NCI-H2347 | 1.09 | 1.15 | 0.684 | 0.718 | 0.852 | 0.905 | 0.909 | 0.507 | 0.836 | 0.547 | 0.574 | 0.624 | 0.468 | 0.508 | 0.587 | 0.337 | 0.3 | 0.243 | 0.343 | 0.282 |
| NCI-H2405 | 0.991 | 0.912 | 0.918 | 0.858 | 0.941 | 0.459 | 0.422 | – | 0.432 | 0.476 | 0.876 | 0.806 | 0.885 | 0.749 | 0.875 | 0.209 | 0.212 | 0.213 | 0.206 | 0.184 |
| NCI-H3122 | 0.963 | 0.978 | 1 | 0.99 | 1.02 | 0.644 | 0.618 | 0.642 | 0.606 | 0.587 | 0.62 | 0.659 | 0.64 | 0.618 | 0.628 | 0.725 | 0.487 | 0.56 | 0.865 | 0.777 |
| PC-3 [JPC-3] | 0.949 | 0.869 | 0.886 | 0.79 | 0.786 | 0.896 | 0.866 | 0.732 | 0.797 | 0.763 | 1.19 | 0.794 | 1.14 | 1.07 | 1.3 | 1 | 0.923 | 1.02 | 0.989 | 0.972 |
| PC-14 | 0.841 | 0.86 | 0.896 | 0.972 | 1.03 | 0.737 | 1.01 | 0.805 | 0.767 | 0.842 | 0.295 | 0.203 | 0.239 | 0.25 | 0.368 | 0.302 | 0.277 | 0.271 | 0.247 | 0.221 |
| RERF-LC-KJ | 1.01 | 1.23 | 1.22 | 1.06 | 1.21 | 0.623 | 0.527 | 0.557 | 0.518 | 0.587 | 0.958 | 0.832 | 1.04 | 0.926 | 0.883 | 0.894 | 0.76 | 0.898 | 0.964 | 0.761 |
| SK-LU-1 | 1.15 | 0.752 | 0.425 | 0.789 | 0.541 | 0.544 | 0.354 | 0.336 | 0.327 | 0.343 | 0.439 | 0.366 | 0.266 | 0.332 | 0.377 | 0.188 | 0.181 | 0.172 | 0.177 | 0.191 |
| SW 1573 | 1.09 | 1.13 | 1.1 | 1.07 | 0.893 | 0.472 | 0.589 | 0.595 | 0.419 | 0.412 | 0.462 | 0.515 | 0.521 | 0.468 | 0.492 | 0.571 | 0.545 | 0.545 | 0.549 | 0.38 |
| UMC-11 | 0.667 | 0.189 | 0.173 | 0.22 | 0.32 | 0.917 | 0.673 | 0.785 | 0.921 | 0.907 | 0.386 | 0.358 | 0.383 | 0.456 | 0.957 | 0.416 | 0.472 | 0.474 | 0.532 | 0.443 |

— the supplement of paper PMC10307832
